Reference: patent US10314883B2, “Compositions and methods for regulating blood pressure” (University of Virginia Patent Foundation, priority 2015, dated 2019)

Columns and labels:
[1] = system: thoracodorsal arteries (TDA); assay: ATP release from intact TDA (luciferin:luciferase); format: cell-based, mouse; settings: for effect on phenylephrine-induced ATP release from intact TDAs: phenylephrine 100 μmol/L, ^10Panx1 300 μmol/L, peptides 3 μmol/L
Experimental: Mouse TDAs of equal length were isolated and washed thoroughly to eliminate red blood cells. Vessels were placed in a well of a 96-well plate containing Krebs-HEPES solution supplemented with 1% BSA at 37° C. for 30 minutes to allow for degradation of any ATP released as a result of mechanical stimulation during manipulation of the vessel. For measurements performed on HEK cells: 24 hours after transfection, cells cultured in 24-well plates were cautiously washed twice with warm Krebs-HEPES-BSA and 300 μl of Krebs-HEPES-BSA was added to each well after the last wash as previously described. The plate was then kept in the incubator at 37° C. with 5% CO2 for 30 minutes to allow for degradation of ATP eventually released during the washes.
The ectonucleotidase inhibitor ARL67156 (300 μmol/L) was applied to each well. When indicated, ^10Panx1 (300 μmol/L) or the peptides analog to intracellular regions of Panx1 (3 μmol/L) were added along with the ARL67156. After a 30 minute incubation at 37° C. with the inhibitor(s), phenylephrine (100 μmol/L) or equivalent volume of Krebs-HEPES-BSA was added and the plate was kept at 37° C. After five minutes of phenylephrine stimulation, the media surrounding the TDA or the cells was transferred to an Eppendorf tube and centrifuged for five minutes at 5,000×g to eliminate eventual cell debris. Fifty microliters of the supernatant was transferred to a white-wall 96 well plate and placed in a FluoStar Omega luminometer. The ATP concentration was measured by adding 50 μL of luciferin:luciferase reagent (ATP bioluminescence assay kit HSII; Roche), which was injected into each well and the luminescence was immediately recorded. Data are expressed as a percent increase in ATP concentration compared to unstimulated condition. Each stimulated condition was compared to unstimulated condition performed on the same day, and all experiments were performed on at least 15 wells of HEK cells or three TDAs. Data were analyzed using a Kruskall Wallis test (non-parametric one-way ANOVA) followed by Dunn's post-hoc test.
To determine if the TDA response involved release of ATP, we dissected TDAs from C57Bl/6 mice and measured the accumulation of extracellular ATP in response to various agonists in the medium (FIG. 1E, inset). The TDAs were placed in a well of a 96 well plate in Krebs-HEPES solution and treated with the ectonucleotidase inhibitor ARL67156 for 30 minutes. Next, arteries were treated with a contractile agonist for five minutes and the amount of ATP in the media surrounding the vessel was determined using the ATP bioluminescence assay kit HSII (Roche).

Panx1 = biological target: T1, Panx1 (Mus musculus, UniProt Q9JIP4); assay: Whole-cell patch clamp of CBX-sensitive Panx1 current in HEK293 cells cotransfected with mPanx1 and α1DAR; format: cell-based; settings: phenylephrine 20 μmol/L; for effect on phenylephrine-induced Panx1 current: cells pre-incubated with peptide 40-60 minutes
T1 construct: we progressively substituted amino acids in this region of full-length Panx1 with alanine residues; HA; expressed in transfected cells; host or cells: HEK293T cells, transient co-transfection with alpha1DAR plasmid (Origene, NM_013460, C-terminal Myc-DDK)
Experimental: Human Embryonic Kidney (HEK) 293T cells were cultured as previously described, and were used until passage 20. For ATP measurements, 50,000 cells/well were seeded in 24 well plates pre-coated with 0.01% poly-L-lysine, and transfected using Lipofectamine 2000 (Invitrogen) according to the manufacturer protocol. Briefly, 0.4 μg of α1DAR and 0.4 μg of Panx1^WT, Panx1^KYP>AAA, Panx1^IVEQ>AAA or Panx1^YLK>AAA plasmids were added to each well along with 2 μl of Lipofectamine 2000. For electrophysiology measurements, 4 μg of α1DAR plasmid, 2 μg of Panx1^WT, Panx1^KYP>AAA, Panx1^IVEQ>AAA or Panx1^YLK>AAA plasmids, and 0.5 μg of GFP plasmid were mixed with 10 μl Lipofectamine 2000 and added to a well of 6-well plate seeded with ˜70% confluent HEK cells. Cells were split the next morning and plated onto a glass coverslip for recording. ATP measurements and whole-cell recordings were performed 24 hours after transfection.
Whole-cell recordings were obtained at room temperature from transiently transfected HEK293T cells using Axopatch 200B amplifier (Molecular Devices) in a bath solution composed of 140 mmol/L NaCl, 3 mmol/L KCl, 2 mmol/L MgCl2, 2 mmol/L CaCl2, 10 mmol/L HEPES and 10 mmol/L glucose (pH 7.3). Patch pipettes (3-5 MΩ) were filled with a Cs-/TEA-based internal solution, as previously described. Ramp voltage commands with 7-s intervals were applied using pCLAMP software and Digidata1322A digitizer (Molecular Devices). Peak whole-cell currents were determined at +80 mV and normalized to cell capacitance. Current mediated by Panx1 was defined by its sensitivity to carbenoxolone (CBX). In this system, no CBX-sensitive current is observed in HEK293T cells without Panx1. Basal current was recorded for approximately two minutes and PE (20 μmol/L) was applied to the bath solution, which was followed by addition of CBX (50 μmol/L). When indicated, cells were pre-incubated with bath solution containing IL2 peptide or its scrambled version at room temperature for 40-60 minutes prior to the experiment. The effect of PE on Panx1 current was quantified relative to CBX-sensitive basal current, and data was expressed as percent increase in CBX-sensitive current. All experiments were performed on 8 to 22 cells for each conditions tested. Data were analyzed using a Kruskall Wallis test (non-parametric one-way ANOVA) followed by Dunn's post-hoc test.
To test if α1AR stimulation triggered opening of the Panx1 channel and the importance of the region represented by the IL2 peptide, we cotransfected mPanx1 and α1DAR into HEK293 cells and monitored whole-cell currents by patch clamp electrophysiology.

T1 sequence (Q9JIP4 whole entry): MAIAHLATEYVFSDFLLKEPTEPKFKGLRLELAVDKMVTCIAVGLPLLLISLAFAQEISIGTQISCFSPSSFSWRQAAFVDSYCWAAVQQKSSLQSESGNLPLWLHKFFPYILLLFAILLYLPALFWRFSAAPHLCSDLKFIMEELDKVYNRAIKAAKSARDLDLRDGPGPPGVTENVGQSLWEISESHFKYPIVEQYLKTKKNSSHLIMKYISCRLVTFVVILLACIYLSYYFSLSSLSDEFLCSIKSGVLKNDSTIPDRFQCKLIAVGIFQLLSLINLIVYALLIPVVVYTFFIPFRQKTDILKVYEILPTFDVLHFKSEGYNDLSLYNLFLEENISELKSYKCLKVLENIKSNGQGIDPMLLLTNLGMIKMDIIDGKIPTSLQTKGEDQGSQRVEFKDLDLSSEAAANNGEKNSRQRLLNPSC

Compound | ATP release from intact TDAs in response to agonist ([1]; five minutes of agonist, ARL67156 300 μmol/L) | effect of agonist on Panx1 whole-cell current (Panx1; cells expressing both mPanx1 and α1DAR) | effect on phenylephrine-induced ATP release from intact TDAs [1] | effect on phenylephrine-induced Panx1 current (Panx1)
CNC[C@H](O)c1cccc(O)c1 [Phenylephrine, phenylephrine] | stimulated ATP release | increased this current |  | 
KYPIVEQYLKYGRKKQRRR [IL2] |  |  | significantly decreased | significantly decreased
scrambled intracellular loop 2 IYLYVEQKPY (SEQ ID NO: 7) linked with a TAT sequence [Scrambled IL2] |  |  | no effect | no effect
